Among the data in patent EP2951180B1, “2,6,7,8 SUBSTITUTED PURINES AS HDM2 INHIBITORS” (Merck Sharp & Dohme Corp., priority 2013, dated 2014) are IC50 values, retold here.

The structures appear in SMILES notation.

The target of the assay is T1, HDM2 (Homo sapiens, UniProt Q00987).
T1 construct: Thioredoxin (N); made in house; host or cells: E. coli strain BL21(DE3)Rosetta
Description: FRET assay (HDM2 inhibition; method not described in this part). In kind it is binding.

T1 sequence (Q00987 17-125): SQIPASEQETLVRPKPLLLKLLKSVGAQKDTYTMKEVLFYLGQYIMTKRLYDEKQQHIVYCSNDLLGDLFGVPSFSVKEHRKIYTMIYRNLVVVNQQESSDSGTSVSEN

Broadly, the IC50 is the concentration that gives 50% inhibition. Lower therefore signals greater potency. `CCOc1ccccc1Cn1c(-c2cccc(C)c2)nc2nc(C(=O)O)nc(N[C@H](C)C3CCC3)c21` [Example 5.6, 6-{[(1R)-1-cyclobutylethyl]amino}-7-(2-ethoxybenzyl)-8-(3-methylphenyl)-7H-purine-2-carboxylic acid] registered an IC50 (Table 5) of 1840 nM.

Take `C=CCCOc1ccc(C)cc1-c1nc2nc(C(=O)O)nc(N[C@H](C)C3CC3)c2n1Cc1ccc(Cl)cc1` [Example 4.3, (R)-8-(2-(but-3-en-1-yloxy)-5-methylphenyl)-7-(4-chlorobenzyl)-6-((1-cyclopropylethyl)amino)-7H-purine-2-carboxylic acid]: the midpoint of inhibition (Table 4), the IC50, lay at 104 nM.

For `C[C@@H](Nc1nc(C(=O)O)nc2nc(-c3ccccc3Cl)n(Cc3ccc(C(F)(F)F)cc3)c12)C1CC1` [Example 2.55, 8-(2-chlorophenyl)-6-{[(1R)-1-cyclopropylethyl]amino}-7-[4-(trifluoromethyl)benzyl]-7H-purine-2-carboxylic acid], the half-inhibitory concentration (IC50) (Table 2) stood at 98.3 nM.

The compound `COc1ccc(C)cc1-c1nc2nc(C(=O)O)nc(N[C@H](C)C3CCC3)c2n1Cc1ccc(C(F)(F)F)cc1` [Example 1.119, 6-{[(1R)-1-cyclobutylethyl]amino}-8-(2-methoxy-5-methylphenyl)-7-[4-(trifluoromethyl)benzyl]-7H-purine-2-carboxylic acid] came in with a concentration for half-maximal inhibition (IC50) (Table 1) of 9.97 nM. That is a single-digit nanomolar value.

Take `Cc1cc(-c2nc3nc(C(=O)O)nc(N[C@H](C)C4CCC4)c3n2Cc2ccc(C(F)(F)F)cc2)n(C)n1` [Example 1.94, 6-{[(1R)-1-cyclobutylethyl]amino}-8-(1,3-dimethyl-1H-pyrazol-5-yl)-7-[4-(trifluoromethyl)benzyl]-7H-purine-2-carboxylic acid]: where the note is “Table 1”, the IC50 amounted to 173 nM.

With `Cc1cc2ncccc2cc1-c1nc2nc(C(=O)O)nc(N[C@H](C)C3CC3)c2n1Cc1ccc(C(F)(F)F)cc1` [Example 1.25, 6-{[(1R)-1-cyclopropylethyl]amino} -8-(7-methylquinolin-6-yl)-7-[4-(trifluoromethyl)benzyl]-7H-purine-2-carboxylic acid], for the setting “Table 1”, the 50% inhibitory concentration (IC50) came out at 1070 nM.

Take `Cc1cccc(-c2nc3nc(C(=O)O)nc(N[C@H](C)C4CC4)c3n2Cc2ccc(C(F)(F)F)cc2)c1` [Example 2.8, 6-{[(1R)-1-cyclopropylethyl]amino}-8-(3-methylphenyl)-7-[4-(trifluoromethyl)benzyl]-7H-purine-2-carboxylic acid]: half-maximal inhibition (Table 2) (IC50) was put at 28.4 nM.

Under “Table 1”, `C[C@@H](Nc1nc(C(=O)O)nc2nc(-c3cc(N(C)C)ccn3)n(Cc3ccc(C(F)(F)F)cc3)c12)C1CCC1` [Example 1.47, 6-{[(1R)-1-cyclobutylethyl]amino}-8-[4-(dimethylamino)pyridin-2-yl]-7-[4-(trifluoromethyl)benzyl]-7H-purine-2-carboxylic acid] displayed an IC50 of 16.4 nM.

The compound `C[C@@H](Nc1nc(C(=O)O)nc2nc(-c3ccc(Cl)c(F)c3)n(Cc3ccc(C(F)(F)F)cc3)c12)C1CC1` [Example 2.53, 8-(4-chloro-3-fluorophenyl)-6-{[(1R)-1-cyclopropylethyl]amino}-7-[4-(trifluoromethyl)benzyl]-7H-purine-2-carboxylic acid] registered a half-inhibitory concentration (IC50) (Table 2) of 200 nM.

`C[C@@H](Nc1nc(C(=O)O)nc2nc(-c3cc(C(F)(F)F)ccc3F)n(Cc3ccc(C(F)(F)F)cc3)c12)C1CCC1` [Example 1.38, 6-{[(1R)-1-cyclobutylethyl]amino}-8-[2-fluoro-5-(trifluoromethyl)phenyl] - 7-[4-(trifluoromethyl)benzyl]-7H-purine-2-carboxylic acid] displayed an IC50 (Table 1) of 27.5 nM. In other words, the double-digit nanomolar range.

Regarding `C[C@@H](Nc1nc(C(=O)O)nc2nc(-c3ccncc3)n(Cc3ccc(C(F)(F)F)cc3)c12)C1CCC1` [Example 2.77, 6-{[(1R)-1-cyclobutylethyl]amino}-8-pyridin-4-yl-7-[4-(trifluoromethyl)benzyl]-7H-purine-2-carboxylic acid], the midpoint of inhibition (Table 2), the IC50, lay at 72.6 nM. In other words, the double-digit nanomolar range.

The compound `C[C@@H](Nc1nc(C(=O)O)nc2nc(-c3ccc4c(c3)CCC4)n(Cc3ccc(C(F)(F)F)cc3)c12)C1CC1` [Example 2.74, 6-{[(1R)-1-cyclopropylethyl]amino}-8-(2,3-dihydro-1H-inden-5-yl)-7-[4-(trifluoromethyl)benzyl]-7H-purine-2-carboxylic acid] displayed an IC50 (Table 2) of 205 nM.

`CC(C)c1cncc(-c2nc3nc(C(=O)O)nc(N[C@H](C)C4CCC4)c3n2Cc2ccc(C(F)(F)F)cc2)c1` [Example 1.81, 6-{[(1R)-1-cyclobutylethyl]amino}-8-[5-(1-methylethyl)pyridin-3-yl]-7-[4-(trifluoromethyl)benzyl]-7H-purine-2-carboxylic acid] came in with an IC50 (Table 1) of 74.4 nM.

For the setting “Table 1”, `C=C(C)c1cc(C)nc(-c2nc3nc(C(=O)O)nc(N[C@H](C)C4CCC4)c3n2Cc2ccc(C(F)(F)F)cc2)c1` [Example 1.5, (R)-6-((1-cyclobutylethyl)amino)-8-(6-methyl-4-(prop-1-en-2-yl)pyridin-2-yl)-7-(4-(trifluoromethyl)benzyl)-7H-purine-2-carboxylic acid] displayed an IC50 of 50.2 nM.

The compound `C[C@@H](Nc1nc(C(=O)O)nc2nc(-c3ccc4ccccc4c3)n(Cc3ccc(C(F)(F)F)cc3)c12)C1CC1` [Example 2.60, 6-{[(1R)-1-cyclopropylethyl]amino}-8-naphthalen-2-yl-7-[4-(trifluoromethyl)benzyl]-7H-purine-2-carboxylic acid] gave an IC50 (Table 2) of 306 nM. This counts as sub-micromolar.

For the compound `Cc1ccc(C)c(-c2nc3nc(C(=O)O)nc(N[C@H](C)C4CCC4)c3n2Cc2ccc(C(F)(F)F)cc2)c1` [Example 1.99, 6-{[(1R)-1-cyclobutylethyl]amino}-8-(2,5-dimethylphenyl)-7-[4-(trifluoromethyl)benzyl]-7H-purine-2-carboxylic acid], it took 14.9 nM to reach half-maximal inhibition (Table 1) (IC50).

Where the note is “Table 3”, `C[C@@H](Nc1nc(C(=O)O)nc2nc(-c3ncco3)n(Cc3ccc(C(F)(F)F)cc3)c12)C1CCC1` [Example 3.5, 6-{[(1R)-1-cyclobutylethyl]amino}-8-(1,3-oxazol-2-yl)-7-[4-(trifluoromethyl)benzyl] -7H-purine-2-carboxylic acid] gave a 50% inhibitory concentration (IC50) of 30 nM.

`Cc1cccnc1-c1nc2nc(C(=O)O)nc(N[C@H](C)C3CCC3)c2n1Cc1ccc(C(F)(F)F)cc1` [Example 1.18] registered an IC50 (Table 1) of 45.7 nM.

Take `CNC(=O)CCOc1ccc(C)cc1-c1nc2nc(C(=O)O)nc(N[C@H](C)C3CC3)c2n1Cc1ccc(Cl)cc1` [Example 4.13, (R)-7-(4-chlorobenzyl)-6-((1-cyclopropylethyl)amino)-8-(5-methyl-2-(3-(methylamino)-3-oxopropoxy)phenyl)-7H-purine-2-carboxylic acid]: half-maximal inhibition (Table 4) (IC50) was put at 487 nM. This lies in the sub-micromolar range.

With `Cc1cccc(-c2nc3nc(C(=O)O)nc(N[C@H](C)C4CC4)c3n2Cc2ccc(C(F)(F)F)c(F)c2)c1` [Example 5.9, 6-{[(1R)-1-cyclopropylethyl]amino}-7-[3-fluoro-4-(trifluoromethyl)benzyl]-8-(3-methylphenyl)-7H-purine-2-carboxylic acid], the concentration for half-maximal inhibition (IC50) (Table 5) is 119 nM.

The compound `CCc1cccc(-c2nc3nc(C(=O)O)nc(N[C@H](C)C4CCC4)c3n2Cc2ccc(C(F)(F)F)cc2)c1` [Example 2.23, 6-{[(1R)-1-cyclobutylethyl]amino}-8-(3-ethylphenyl)-7-[4-(trifluoromethyl)benzyl]-7H-purine-2-carboxylic acid] yielded an IC50 (Table 2) of 16.7 nM.

On to `COc1ncc(-c2nc3nc(C(=O)O)nc(N[C@H](C)C4CC4)c3n2Cc2ccc(C(F)(F)F)cc2)cc1F` [Example 2.49, 6-{[(1R)-1-cyclopropylethyl]amino}-8-(5-fluoro-6-methoxypyridin-3-yl)-7-[4-(trifluoromethyl)benzyl]-7H-purine-2-carboxylic acid], for which the IC50 (Table 2) amounted to 310 nM.

Compound `COCOc1ccc(C(C)C)cc1-c1nc2nc(C(=O)O)nc(N[C@H](C)C3CCC3)c2n1Cc1ccc(C(F)(F)F)cc1` [Example 1.30, 6-{[(1R)-1-cyclobutylethyl]amino}-8-[2-(methoxymethoxy)-5-(1-methylethyl)phenyl]-7-[4-(trifluoromethyl)benzyl]-7H-purine-2-carboxylic acid] came in with a half-maximal inhibitory concentration (IC50) (Table 1) of 54.4 nM.

Turning to `Cc1ccnc(-c2nc3nc(C(=O)O)nc(N[C@H](C)C4CCC4)c3n2Cc2ccc(C(F)(F)F)cc2)c1F` [Example 1.82, 6-{[(1R)-1-cyclobutylethyl]amino}-8-(3-fluoro-4-methylpyridin-2-yl)-7-[4-(trifluoromethyl)benzyl]-7H-purine-2-carboxylic acid], the IC50 (Table 1) was 49 nM.

In the case of `C[C@@H](Nc1nc(C(=O)O)nc2nc(-c3ccc(-c4ccccc4)cc3)n(Cc3ccc(C(F)(F)F)cc3)c12)C1CCC1` [Example 1.109, 8-biphenyl-4-yl-6-{[(1R)-1-cyclobutylethyl]amino}-7-[4-(trifluoromethyl)benzyl]-7H-purine-2-carboxylic acid], the IC50 (Table 1) came to 473 nM.

On to `CCc1ccc(F)c(-c2nc3nc(C(=O)O)nc(N[C@H](C)C4CCC4)c3n2Cc2ccc(C(F)(F)F)cc2)c1` [Example 1.40, 6-{[(1R)-1-cyclobutylethyl]amino}-8-(5-ethyl-2-fluorophenyl)-7-[4-(trifluoromethyl)benzyl]-7H-purine-2-carboxylic acid], for which, for the setting “Table 1”, the IC50 came out at 33.8 nM.

Where the note is “Table 1”, `CCc1ccc(Cl)c(-c2nc3nc(C(=O)O)nc(N[C@H](C)C4CCC4)c3n2Cc2ccc(C(F)(F)F)cc2)c1` [Example 1.2, (R)-8-(2-chloro-5-ethylphenyl)-6-((1-cyclobutylethyl)amino)-7-(4-(trifluoromethyl)benzyl)-7H-purine-2-carboxylic acid] had a half-inhibitory concentration (IC50) of 23.7 nM. The IC50 values of the last two compounds are within 1.5-fold of each other.

Regarding `C[C@@H](Nc1nc(C(=O)O)nc2nc(-c3cccc(C(N)=O)c3)n(Cc3ccc(C(F)(F)F)cc3)c12)C1CCC1` [Example 1.37, 8-(3-carbamoylphenyl)-6-{[(1R)-1-cyclobutylethyl]amino}-7-[4-(trifluoromethyl)benzyl]-7H-purine-2-carboxylic acid], the IC50 (Table 1) is 49.4 nM.

Where the note is “Table 1”, `CC(C)c1cc(-c2nc3nc(C(=O)O)nc(N[C@H](C)C4CCC4)c3n2Cc2ccc(C(F)(F)F)cc2)ccn1` [Example 1.4, (R)-6-((1-cyclobutylethyl)amino)-8-(2-isopropylpyridin-4-yl)-7-(4-(trifluoromethyl)benzyl)-7H-purine-2-carboxylic acid] showed a concentration for half-maximal inhibition (IC50) of 58.8 nM.
